Reference: patent publication US20090156646A1, “PYRIDYLPHENOL COMPOUND AND USE THEREOF” (TAKEDA PHARMACEUTICAL COMPANY LIMITED, priority 2005, published 2009)
Structures can show the parent of a compound that is named as a salt.

Compared with `CCN(CC)CCN(CC)c1cccc(-c2cc(-c3ccc(F)cc3O)nc(NC(=O)c3ccco3)c2C#N)c1` (as salt: hydrochloride) [Example 304, N-[3-cyano-4-{3-[[2-(diethylamino)ethyl] (ethyl)amino]phenyl}-6-(4-fluoro-2-hydroxyphenyl)pyridin-2-yl]-2-furamide dihydrochloride], `N#Cc1c(-c2cccc(NC(=O)[C@@H](N)CN)c2)cc(-c2ccc(F)cc2O)nc1NC(=O)c1ccco1` (as salt: hydrochloride) [Example 302, N-[4-{3-[(3-amino-L-alanyl)amino]phenyl}-3-cyano-6-(4-fluoro-2-hydroxyphenyl)pyridin-2-yl]-2-furamide dihydrochloride] is higher in melting point: 138 to 144 °C for the first, 231 to 240 °C for the second.

First: CN(C)c1ccc(-c2cc(-c3ccccc3O)nc(NC(=O)c3cccs3)c2C#N)cc1C(=O)NCCN (as salt: hydrochloride) [Example 248, N-[4-[3-{[(2-aminoethyl)amino]carbonyl}-4-(dimethylamino)phenyl]-3-cyano-6-(2-hydroxyphenyl)pyridin-2-yl]thiophene-2-carboxamide dihydrochloride]
Second: Cl.N#Cc1c(-c2ccc(C(=O)NCCN)cc2)cc(-c2ccccc2O)nc1NC(=O)c1cccs1
The melting point of the first is higher: 210 to 216 °C for the first, 202 to 208 °C for the second.

`N#Cc1c(-c2cccc(N)c2)cc(-c2ccccc2O)nc1NC(=O)c1ccc(Cl)s1` [Example 32, N-[4-(3-aminophenyl)-3-cyano-6-(2-hydroxyphenyl)pyridin-2-yl]-5-chlorothiophene-2-carboxamide] and `N#Cc1c(-c2cccc(N)c2)cc(-c2ccccc2O)nc1NC(=O)c1ccccc1` [Example 28, N-[4-(3-aminophenyl)-3-cyano-6-(2-hydroxyphenyl)pyridin-2-yl]benzamide] cannot be ordered by melting point: 259 to 260 °C for the first, 259 to 261 °C for the second.

`NCCC(=O)Nc1cccc(-c2cc(NC(=O)c3cccs3)nc(-c3ccccc3O)c2)c1` (as salt: hydrochloride) [Example 27, N-{4-[3-(β-alanylamino)phenyl]-6-(2-hydroxyphenyl)pyridin-2-yl}thiophene-2-carboxamide dihydrochloride] and `N#Cc1c(-c2cccc(NC(=O)CN)c2)cc(-c2ccccc2O)nc1NC(=O)c1cccs1` (as salt: hydrochloride) [Example 12, N-[3-cyano-4-[3-(glycylamino)phenyl]-6-(2-hydroxyphenyl)pyridin-2-yl]thiophene-2-carboxamide dihydrochloride] cannot be ordered by melting point: 214 to 220 °C for the first, 210 to 217 °C for the second.

`CN1CCN(Cc2cccc(-c3cc(-c4ccc(F)cc4O)nc(NC(=O)c4ccco4)c3C#N)c2)CC1` (as salt: hydrochloride) [Example 333, N-(3-cyano-6-(4-fluoro-2-hydroxyphenyl)-4-{3-[(4-methylpiperazin-1-yl)methyl]phenyl}pyridin-2-yl)-2-furamide dihydrochloride] and `N#Cc1c(-c2cccc(NC(=O)[C@@H](N)Cc3cnc[nH]3)c2)cc(-c2ccc(Cl)cc2O)nc1NC(=O)c1ccco1` (as salt: hydrochloride) [Example 243, N-{3-[6-(4-chloro-2-hydroxyphenyl)-3-cyano-2-(2-furoylamino)pyridin-4-yl]phenyl}-L-histidinamide dihydrochloride] cannot be ordered by melting point: 205 to 210 °C for the first, 206 to 214 °C for the second.

First: COc1ccccc1C(=O)Nc1nc(-c2ccc(Cl)cc2O)cc(-c2cccc(NC(=O)CCN)c2)c1C#N.Cl
Second: Cl.N#Cc1c(-c2cccc(NC(=O)CCN)c2)cc(-c2ccc(Cl)cc2O)nc1NC(=O)c1ccccc1OC(F)(F)F
The melting point of the first is higher: 233 to 238 °C for the first, 218 to 223 °C for the second.

First: CNc1cccc(-c2cc(-c3ccccc3O)nc(NC(=O)c3cccs3)c2C#N)c1 [Example 39, N-{3-cyano-6-(2-hydroxyphenyl)-4-[3-(methylamino)phenyl]pyridin-2-yl}thiophene-2-carboxamide]
Second: CN(C)c1cccc(-c2cc(-c3ccccc3O)nc(NC(=O)c3cccs3)c2C#N)c1 [Example 38, N-{3-cyano-4-[3-(dimethylamino)phenyl]-6-(2-hydroxyphenyl)pyridin-2-yl}thiophene-2-carboxamide]
The melting point of the first is lower: 227 to 230 °C for the first, 230 to 231 °C for the second.

`N#Cc1c(-c2cccc(NC(=O)CCN)c2)cc(-c2ccc(Cl)cc2O)nc1NC(=O)c1ccccc1` (as salt: trifluoroacetate) [Example 51, N-{4-[3-(β-alanylamino)phenyl]-6-(4-chloro-2-hydroxyphenyl)-3-cyanopyridin-2-yl}benzamide trifluoroacetate] and `COc1ccc(-c2cc(-c3cccc(NC(=O)CCN)c3)c(C#N)c(NC(=O)c3ccccc3)n2)c(O)c1` (as salt: trifluoroacetate) [Example 50, N-{4-[3-(β-alanylamino)phenyl]-3-cyano-6-(2-hydroxy-4-methoxyphenyl)pyridin-2-yl}benzamide trifluoroacetate] cannot be ordered by melting point: 160 to 167 °C for the first, 164 to 170 °C for the second.

Compared with `CC(=O)NCCC(=O)Nc1cccc(-c2cc(-c3ccc(Cl)cc3O)nc(NC(=O)c3cccs3)c2C#N)c1` [Example 59, N-[4-{3-[(N-acetyl-β-alanyl)amino]phenyl}-6-(4-chloro-2-hydroxyphenyl)-3-cyanopyridin-2-yl]thiophene-2-carboxamide], `N#Cc1c(-c2cccc(NC(=O)CCN)c2)cc(-c2ccc(Cl)cc2O)nc1NC(=O)c1cccs1` (as salt: trifluoroacetate) [Example 56, N-{4-[3-(β-alanylamino)phenyl]-6-(4-chloro-2-hydroxyphenyl)-3-cyanopyridin-2-yl}thiophene-2-carboxamide trifluoroacetate] is lower in melting point: 209 to 210 °C for the first, 206 to 209 °C for the second.

First: CC(C)(C)OC(=O)c1c(-c2cccc(N)c2)cc(-c2ccccc2O)nc1NC(=O)c1ccccc1 [Example 62, tert-butyl 4-(3-aminophenyl)-2-(benzoylamino)-6-(2-hydroxyphenyl)nicotinate]
Second: Cl.NCCC(=O)Nc1cccc(-c2cc(-c3ccccc3O)nc(NC(=O)c3ccccc3)c2C(=O)O)c1
The melting point of the first is lower: 162 to 164 °C for the first, 250 to 253 °C for the second.

Compared with `CCCNC(=O)c1cccc(-c2cc(-c3ccccc3O)nc(NC(=O)c3cccs3)c2C#N)c1` [Example 34, N-(3-cyano-6-(2-hydroxyphenyl)-4-{3-[(propylamino)carbonyl]phenyl}pyridin-2-yl)thiophene-2-carboxamide], `CNCC(=O)Nc1cccc(-c2cc(-c3ccccc3O)nc(NC(=O)c3cccs3)c2C#N)c1.Cl` is higher in melting point: 245 to 246 °C for the first, 248 to 254 °C for the second.

First: N#Cc1c(-c2cccc(C(=O)N3CCOCC3)c2)cc(-c2ccccc2O)nc1NC(=O)c1cccs1 [Example 36, N-{3-cyano-6-(2-hydroxyphenyl)-4-[3-(morpholin-4-ylcarbonyl)phenyl]pyridin-2-yl}thiophene-2-carboxamide]
Second: CN(C(=O)CN)c1cccc(-c2cc(-c3ccccc3O)nc(NC(=O)c3cccs3)c2C#N)c1 (as salt: hydrochloride) [Example 41, N-[3-cyano-4-{3-[glycyl(methyl)amino]phenyl}-6-(2-hydroxyphenyl)pyridin-2-yl]thiophene-2-carboxamide dihydrochloride]
The melting point of the first is higher: 253 to 254 °C for the first, 198 to 205 °C for the second.

First: Cl.N#Cc1c(-c2cccc(NC(=O)[C@H]3CCCN3)c2)cc(-c2ccccc2O)nc1NC(=O)c1cccs1
Second: COc1ccc(O)c(-c2cc(-c3cccc(NC(=O)CCN)c3)c(C#N)c(NC(=O)c3cccs3)n2)c1.Cl
The melting point of the first is higher: 213 to 218 °C for the first, 197 to 201 °C for the second.

Compared with `Cl.N#Cc1c(-c2cccc(C(=O)NC3CCCNC3)c2)cc(-c2ccccc2O)nc1NC(=O)c1cc2ccccc2s1` (centres unmarked), `N#Cc1c(-c2cccc(C(=O)NC3CCCNC3)c2)cc(-c2ccccc2O)nc1NC(=O)c1ccccn1` (centres unmarked) (as salt: hydrochloride) [Example 10, N-(3-cyano-6-(2-hydroxyphenyl)-4-{3-[(piperidin-3-ylamino)carbonyl]phenyl}pyridin-2-yl)pyridin-2-carboxamide dihydrochloride] is lower in melting point: 225 to 229 °C for the first, 204 to 210 °C for the second.

With `Cl.N#Cc1c(-c2cccc(NC(=O)CC3CCCCN3)c2)cc(-c2ccc(F)cc2O)nc1NC(=O)c1ccco1` (centres unmarked) [Example 290] the melting point was 277 to 278 °C (dec.).
